Assay results reported in patent US6365616B1, “Methimazole derivatives and tautomeric cyclic thiones to treat autoimmune diseases” (Sentron Medical, Inc., priority 1998, dated 2002).

Test system: γ-IFN-increased protein/DNA complex with DRα 5′-flanking region probe
Assay: Gel shift (EMSA) with 137 class II probe, extracts from γ-IFN-treated FRTL-5 cells
Format: cell-based, rat
Conditions: for % inhibition of IFN-increased complex formation: 137 class II probe, γ-IFN-treated 5H cells
Description: Cells were grown in 6H medium with 5 % calf serum for 6-7 days to 70-80% confluence, then shifted to 5H medium with 5 % calf serum for 5 days. TSH (1×10^−10 M), gamma-interferon (100 U/ml), MMI (5 mM), and different concentrations of MMI derivatives or tautomeric cyclic thiones (0.0001 to 10 mM) were added as appropriate for […]. Cells were then harvested and extracts were made by a modification of a method of Dignam, J., et al. Methods in Enzymology, 101:582-598 (1983). In brief, cells were harvested by scraping after being washed twice with cold phosphate-buffer saline (PBS). Subsequently they were pelleted, washed in cold PBS and then pelleted again. The pellet was resuspended in Dignam buffer C (20 mM Hepes buffer at pH 7.9, 1.5 mM MgCl2, 0.42 M NaCl, 25% glycerol, 0.5 mM dithiotreitol (DTT), 0.5 mM phenylmethylsulfonylfluoride (PMSF), 1 […] pepstatin). The final NaCl concentration was adjusted on the basis of cell pellet volume to 0.42 M and cells were lysed by repeated cycles of freezing and thawing. Extracts were then centrifuged at 10,000×g at 4° C. for 20 min. The supernatant was recovered, aliquoted and stored at −70° C.
Cell extracts to perform class II gel shift studies were prepared exactly as for class I studies (Dignam et al., ibid, 582-598 (1983); Giuliani C, et al., J. Biol. Chem. 270: 11453-11462 (1995); Saji M, et al., J. Biol. Chem. 272: 20096-20107 (1997); Montani, V., et al., Endocrinology 139: 280-289 (1998a); Montani, V., et al., Endocrinology 139: 290-302 (1998b)), with the exception that the extracts were from γ-interferon treated cells, usually 100 U/ml interferon for 24 to 48 hours. Similarly, electrophoretic mobility shift assays (EMSA) were performed in the same way. Oligonucleotides used for EMSA were synthesized (Operon Technologies, Inc.) or were purified from 2 % agarose gels using either QIAEX (Qiagen, Chatsworth, Calif.) or Jet Sorb (Genomed) following restriction enzyme treatment of chimeric HLA-DRα-CAT constructs (Montani et al., 1998a, b). The oligonucleotides were dephosphorylated with calf intestinal alkaline phosphatase, labeled with […] or with [γ-^32P]ATP using T4 polynucleotide kinase, then purified on an 8% native polyacrylamide gel (Giuliani C, et al., ibid, 11453-11462 (1995); Saji M, et al., ibid, 20096-20107 (1997); Sambrook J, et al., ibid, 2:11.23-11.44 (1989); Montani, V., et al., ibid, 280-289 (1998a), 290-302 (1998b)).
Binding reactions for class II EMSA used similar conditions as well. They were carried out in a volume of 20 μl for 30 min at room temperature. The reaction mixtures contained 1.5 fmol of [^32P]DNA, 3 μg cell extract and 1.5 to 3 μg poly(di-dC) in 10 mM Tris-Cl at pH 7.9, 1 mM MgCl2, 1 mM DTT, 1 mM EDTA, and 5% glycerol. Where indicated, unlabeled double- or single-stranded oligonucleotides were added to the binding reaction as competitors and incubated with the extract for 20 min at room temperature prior to the addition of labeled DNA. Similarly, in experiments using antiserum, extracts were also incubated in the same buffer containing antiserum or normal rabbit serum for 20 min at room temperature before being processed as above. Following incubations, reaction mixtures were subjected to electrophoresis on 3.5 or 5 % native polyacrylamide gels at 160 V in 0.5xTBE, at room temperature, for 1.5 to 2 h. Gels were dried and autoradiographed at -80° C overnight unless otherwise noted.
FIG. 7 depicts the effect of MMI on the ability of γ-IFN to increase the formation of protein/DNA complexes with the […] DR α5′-flanking region probe. The radiolabeled probe is the same as that used and diagrammatically presented in FIG. 6; it contains −137 bp to +45 bp of the 5′-flanking region of DRα-CAT chimera. Extracts were from FRTL-5 rat thyroid cells grown to near confluency in TSH, maintained 6 days in SH medium, then treated with 100 U/ml γ-IFN, 5 mM MMI, or both for the last 48 h before the experiment was terminated. […]

Row | Structure (SMILES) | % inhibition of IFN-increased complex formation (10 μM) [%] | % inhibition of IFN-increased complex formation (100 μM) [%] | % inhibition of IFN-increased complex formation (1 mM) [%] | % inhibition of IFN-increased complex formation (5 mM) | suppression of interferon-induced class II protein/DNA complexes compared with MMI (FIG. 8) (1 mM)
1 | Cn1ccnc1S [Compound 1, 1-Methylimidazole-2-thiol] | 0 | 0 | 10 ± 5 | 85 ± 12% | 
2 | Cc1ncc([N+](=O)[O-])n1CCO [Compound 2, 2-Methyl-5-nitro-1-imidazole ethanol] | 0 | 0 | 55 ± 14 | 95 ± 10% | significantly more effective suppressors than MMI
3 | Sc1ncc[nH]1 [Compound 3, 2-Mercaptoimidazole] | 0 | 0 | 0 | 0% | 
4 | Sc1nc2ccccc2[nH]1 [Compound 4, 2-Mercaptobenzimidazole] | 0 | 5 | 65 ± 15 | Insol | 
5 | O=[N+]([O-])c1ccc2[nH]c(S)nc2c1 [Compound 5, 2-Mercapto-5-nitrobenzimidazole] | 0 | 0 | 45 ± 21 | Insol | 
6 | Cc1ccc2[nH]c(S)nc2c1 [Compound 6, 2-Mercapto-5-methylbenzimidazole] | 0 | 0 | 35 ± 18 | Insol | 
7 | CSc1nccn1C [Compound 7, S-Methylmethimazole] | 0 | 16 ± 11 | 74 ± 13 |  | significantly more effective suppressors than MMI
8 | Cn1ccn(C)c1=S [Compound 8, N-Methylmethimazole] | 0 | 21 ± 18 | 86 ± 14 |  | significantly more effective suppressors than MMI
9 | Cc1cnc(S)n1C [Compound 9, 5-Methylmethimazole] | 0 | 0 | 25 ± 15 | 40 ± 20% | 
10 | Cn1c(-c2ccccc2)cnc1S [Compound 10, 5-Phenylmethimazole] | 35 ± 15 | 78 ± 10 | 95 ± 16 |  | 
